# Measured values as given in patent US12655116B2, “Substituted isophthalic acid diamides” (Bayer Aktiengesellschaft, priority 2020, dated 2026).
# How the values were obtained:
# ECHCG [1] = experiment: Pre-emergence herbicidal action against ECHCG; type: in vivo, Echinochloa crus-galli; conditions: 80 g/ha
# Method in brief: (§1)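 Sandy loam pots, seeds covered with soil, then surface-treated with WP or EC formulations at 600–800 l/ha water plus 0.2% wetting agent. Greenhouse, 3 weeks. Percent damage vs untreated controls.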
# PHBPU [2] = experiment: Post-emergence herbicidal action against PHBPU; type: in vivo, Pharbitis purpurea; conditions: dosage 20 g/ha
# Method in brief: (§2)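 Herbicidal action is a visual percentage rating (0% = as untreated control, 100% = plants dead) made roughly 3 weeks after treatment. Plants were grown in sandy loam in the greenhouse and treated at the one-leaf stage, 2 to 3 weeks post-sowing. Treatment was a foliar spray of wettable-powder or emulsion-concentrate formulations at 600 to 800 l/ha water plus 0.2% wetting agent.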
# ABUTH [3] = experiment: Pre-emergence herbicidal action against ABUTH; type: in vivo, Abutilon theophrasti
# Method in brief: as §1
# POLCO = experiment: Pre-emergence herbicidal action against POLCO; type: in vivo, Polygonum convolvulus; conditions: dosage 80 g/ha
# Method in brief: as §1
# ALOMY [4] = experiment: Pre-emergence herbicidal action against ALOMY; type: in vivo, Alopecurus myosuroides; conditions: 80 g/ha, pre-emergence, scored visually after 3 weeks vs untreated controls (100% = plants have died, 0% = like control plants)
# Method in brief: as §1
# AVEFA = experiment: Pre-emergence herbicidal action against AVEFA; type: in vivo, Avena fatua; conditions: 80 g/ha, pre-emergence
# Method in brief: as §1
# AMARE [5] = experiment: Pre-emergence herbicidal action against AMARE; type: in vivo, Amaranthus retroflexus
# Method in brief: as §1
# ECHCG [6] = experiment: Post-emergence herbicidal action against ECHCG; type: in vivo, Echinochloa crus-galli; conditions: dosage 20 g/ha
# Method in brief: as §2
# VERPE [7] = experiment: Post-emergence herbicidal action against VERPE; type: in vivo, Veronica persica; conditions: 20 g/ha
# Method in brief: as §2
# VERPE [8] = experiment: Pre-emergence herbicidal action against VERPE; type: in vivo, Veronica persica
# Method in brief: as §1
# ALOMY [9] = experiment: Post-emergence herbicidal action against ALOMY; type: in vivo, Alopecurus myosuroides; conditions: dosage 20 g/ha, visual assessment about 3 weeks after treatment vs untreated controls
# Method in brief: as §2
# DIGSA [10] = experiment: Pre-emergence herbicidal action against DIGSA; type: in vivo, Digitaria sanguinalis
# Method in brief: as §1
# MATIN [11] = experiment: Post-emergence herbicidal action against MATIN; type: in vivo, Matricaria inodora; conditions: dosage 20 g/ha
# Method in brief: as §2
# VIOTR = experiment: Pre-emergence herbicidal action against VIOTR; type: in vivo, Viola tricolor
# Method in brief: as §1
# AMARE [12] = experiment: Post-emergence herbicidal action against AMARE; type: in vivo, Amaranthus retroflexus; conditions: 20 g/ha, visual assessment about 3 weeks after treatment, 100% = plants have died, 0% = like control plants
# Method in brief: as §2
# MATIN [13] = experiment: Pre-emergence herbicidal action against MATIN; type: in vivo, Matricaria inodora
# Method in brief: as §1
# SETVI = experiment: Pre-emergence herbicidal action against SETVI; type: in vivo, Setaria viridis
# Method in brief: as §1
# PHBPU [14] = experiment: Pre-emergence herbicidal action against PHBPU; type: in vivo, Pharbitis purpurea; conditions: dosage 80 g/ha
# Method in brief: as §1
# ABUTH [15] = experiment: Post-emergence herbicidal action against ABUTH; type: in vivo, Abutilon theophrasti; conditions: dosage 20 g/ha, visual assessment about 3 weeks after treatment vs untreated controls
# Method in brief: as §2
# DIGSA [16] = experiment: Post-emergence herbicidal action against DIGSA; type: in vivo, Digitaria sanguinalis; conditions: 20 g/ha
# Method in brief: as §2
# [17] = 80 g/ha, scored visually after 3 weeks vs untreated controls (100% = plants have died, 0% = like control plants)
smiles,measurement,setting,value
CC(NC(=O)c1c(C(F)F)ccc(C(=O)Nc2nnnn2C)c1Br)C1CC1 (stereo not drawn) [Example 1-340],Pre-emergence action against ECHCG in %,ECHCG [1],100%
same,Post-emergence action against PHBPU in %,PHBPU [2],90%
same,Pre-emergence action against ABUTH (herbicidal activity),ABUTH [3]; [17],100%
same,Pre-emergence action against ABUTH (herbicidal activity in percent),"ABUTH [3]; dosage 20 g/ha, scored visually after 3 weeks vs untreated controls, 100% = plants have died, 0% = like control plants",100%
same,Pre-emergence action against POLCO in %,POLCO,90%
same,Pre-emergence action against ALOMY (herbicidal activity),ALOMY [4],90%
same,Pre-emergence action against AVEFA in %,AVEFA,80%
same,Pre-emergence action against AMARE in %,"AMARE [5]; 20 g/ha, scored visually after 3 weeks vs untreated controls, 100% = plants have died, 0% = like control plants",100%
same,Pre-emergence action against AMARE in %,AMARE [5]; [17],100%
same,Post-emergence action against ECHCG in %,ECHCG [6],90%
same,Post-emergence action against VERPE in %,VERPE [7],80%
same,Pre-emergence action against VERPE in %,VERPE [8]; dosage 20 g/ha,100%
same,Pre-emergence action against VERPE in %,VERPE [8]; dosage 80 g/ha,100%
same,Post-emergence action against ALOMY in %,ALOMY [9],80%
same,Pre-emergence action against DIGSA in %,DIGSA [10]; dosage 20 g/ha,100%
same,Pre-emergence action against DIGSA in %,DIGSA [10]; dosage 80 g/ha,100%
same,Post-emergence action against MATIN in %,MATIN [11],80%
same,Pre-emergence action against VIOTR in %,VIOTR; dosage 20 g/ha,100%
same,Pre-emergence action against VIOTR in %,VIOTR; dosage 80 g/ha,100%
same,Post-emergence action at 20 g/ha against AMARE in %,AMARE [12],90%
same,Pre-emergence action against MATIN in %,MATIN [13]; dosage 20 g/ha,100%
same,Pre-emergence action against MATIN in %,MATIN [13]; dosage 80 g/ha,100%
same,Pre-emergence action against SETVI in %,SETVI; dosage 20 g/ha,90%
same,Pre-emergence action against SETVI in %,SETVI; dosage 80 g/ha,100%
same,Pre-emergence action against PHBPU in %,PHBPU [14],90%
same,Post-emergence action against ABUTH in %,ABUTH [15],80%
same,Post-emergence action against DIGSA,DIGSA [16],90%
